Assays:
Format in all cases: in vivo
[1] = test system: redroot pigweed (Amaranthus retroflexus, AMARE); assay: Post-emerge test, greenhouse herbicide activity screening; settings: rating scale 0-100 (0 no damage, 100 complete death), 14 days after application
Procedure, shortened: (§1)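 Compounds in acetone were track-sprayed at 15-1000 g ai/ha (187 l/ha) on sandy loam pots: pre-emerge one day after seeding, post-emerge at 2-3 leaf stage with 0.25% v/v non-ionic surfactant. Phytotoxicity was rated 14 days later on a 0 (no damage) to 100 (complete death) scale.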

[2] = test system: ivyleaf morningglory (Ipomoea hederacea, IPOHE); assay: as above; settings: rating scale 0-100 (0 no damage, 100 complete death), 14 days after application
Procedure, shortened: as §1

[3] = test system: sicklepod (Cassia obtusifolia, CASOB); assay: as above; settings: rating scale 0-100 (0 no damage, 100 complete death), 14 days after application
Procedure, shortened: as §1

[4] = test system: large crabgrass (Digitaria sanguinalis, DIGSA); assay: as above; settings: rating scale 0-100 (0 no damage, 100 complete death), 14 days after application
Procedure, shortened: as §1

[5] = test system: barnyardgrass (Echinochloa crus-galli, ECHCG); assay: as above; settings: rating scale 0-100 (0 no damage, 100 complete death), 14 days after application
Procedure, shortened: as §1

[6] = test system: green foxtail (Setaria viridis, SETVI); assay: as above; settings: rating scale 0-100 (0 no damage, 100 complete death), 14 days after application
Procedure, shortened: as §1

[7] = test system: lambsquarters (Chenopodium album, CHEAL); assay: as above; settings: rating scale 0-100 (0 no damage, 100 complete death), 14 days after application
Procedure, shortened: as §1

[8] = test system: velvetleaf (Abutilon theophrasti, ABUTH); assay: as above; settings: rating scale 0-100 (0 no damage, 100 complete death), 14 days after application
Procedure, shortened: as §1

[9] = test system: johnsongrass (Sorghum halepense, SORHA); assay: as above; settings: rating scale 0-100 (0 no damage, 100 complete death), 14 days after application
Procedure, shortened: as §1

[10] = test system: common ragweed (Ambrosia artemisizfolia L., AMBEL); assay: as above; settings: rating scale 0-100 (0 no damage, 100 complete death), 14 days after application
Procedure, shortened: as §1

[11] = test system: field corn (Zea mays L., var. Dekalb 535, CORN); assay: Pre-emerge test, crop safety; settings: rating scale 0-100, 14 days after application
Procedure, shortened: (§2)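 Applied at 15–1000 g ai/ha from acetone in 187 l/ha spray volume. Post-emergence applications included 0.25% v/v non-ionic surfactant and reached plants sown 8–21 days before. Pre-emergence applications were incorporated by surface watering. Efficacy or crop damage was rated on a 0–100 scale after 14 days.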

[12] = test system: upland rice (Oryza sp., var. Tebonnet, RICE); assay: Pre-emerge test, crop safety; settings: rating scale 0-100, 14 days after application
Procedure, shortened: as §2

[13] = test system: field corn (Zea mays L., var. Dekalb 535, CORN); assay: Post-emerge test, crop safety; settings: rating scale 0-100 (0 no damage, 100 complete death), 14 days after application
Procedure, shortened: (§3)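 Compounds in acetone were track-sprayed at 187 l/ha, 15–1000 g ai/ha, onto sandy loam pots. Pre-emerge seeds were sown one day before spraying, with surface watering afterwards. Post-emerge plants were at the 2–3 leaf stage and sprayed with 0.25% v/v non-ionic surfactant. Injury was rated 0–100 at 14 days.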

[14] = test system: upland rice (Oryza sp., var. Tebonnet, RICE); assay: Post-emerge test, crop safety; settings: rating scale 0-100 (0 no damage, 100 complete death), 14 days after application
Procedure, shortened: as §3

[15] = test system: ivyleaf morningglory (Ipomoea hederacea, IPOHE); assay: Pre-emerge test, greenhouse herbicide activity screening; settings: rating scale 0-100, 14 days after application
Procedure, shortened: as §3

[16] = test system: sicklepod (Cassia obtusifolia, CASOB); assay: as above; settings: rating scale 0-100, 14 days after application
Procedure, shortened: as §3

[17] = test system: large crabgrass (Digitaria sanguinalis, DIGSA); assay: as above; settings: rating scale 0-100, 14 days after application
Procedure, shortened: as §3

[18] = test system: barnyardgrass (Echinochloa crus-galli, ECHCG); assay: as above; settings: rating scale 0-100, 14 days after application
Procedure, shortened: as §3

[19] = test system: green foxtail (Setaria viridis, SETVI); assay: as above; settings: rating scale 0-100, 14 days after application
Procedure, shortened: as §3

[20] = test system: lambsquarters (Chenopodium album, CHEAL); assay: as above; settings: rating scale 0-100, 14 days after application
Procedure, shortened: as §3

[21] = test system: velvetleaf (Abutilon theophrasti, ABUTH); assay: as above; settings: rating scale 0-100, 14 days after application
Procedure, shortened: as §3

[22] = test system: johnsongrass (Sorghum halepense, SORHA); assay: as above; settings: rating scale 0-100, 14 days after application
Procedure, shortened: as §3

[23] = test system: redroot pigweed (Amaranthus retroflexus, AMARE); assay: as above; settings: rating scale 0-100, 14 days after application
Procedure, shortened: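 Rating: 0–100 visual injury, 14 DAA. Application: acetone, 187 l/ha, 15–1000 g ai/ha, flat-fan track sprayer with nozzle 40–45 cm above soil or canopy. Post-emerge runs used 0.25% v/v surfactant on 2–3 leaf plants.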

COc1c(Cl)cc(F)c(-n2c(=O)cc(C(F)(F)F)n(C)c2=O)c1CC(C)(Cl)C(=O)OCC(F)(F)C(F)F (stereo not shown) [14-45]
Post-emerge Herbicidal Activity, phytotoxicity rating AMARE ([1]; Rate 63 g ai/ha): 100
Post-emerge Herbicidal Activity, phytotoxicity rating AMARE ([1]; Rate 250 g ai/ha): 100
Post-emerge Herbicidal Activity, phytotoxicity rating IPOHE ([2]; Rate 63 g ai/ha): 100
Post-emerge Herbicidal Activity, phytotoxicity rating IPOHE ([2]; Rate 250 g ai/ha): 100
Post-emerge Herbicidal Activity, phytotoxicity rating CASOB ([3]; Rate 63 g ai/ha): 30
Post-emerge Herbicidal Activity, phytotoxicity rating CASOB ([3]; Rate 250 g ai/ha): 30
Post-emerge Herbicidal Activity, phytotoxicity rating DIGSA ([4]; Rate 63 g ai/ha): 90
Post-emerge Herbicidal Activity, phytotoxicity rating DIGSA ([4]; Rate 250 g ai/ha): 100
Post-emerge Herbicidal Activity, phytotoxicity rating ECHCG ([5]; Rate 63 g ai/ha): 100
Post-emerge Herbicidal Activity, phytotoxicity rating ECHCG ([5]; Rate 250 g ai/ha): 100
Post-emerge Herbicidal Activity, phytotoxicity rating SETVI ([6]; Rate 63 g ai/ha): 70
Post-emerge Herbicidal Activity, phytotoxicity rating SETVI ([6]; Rate 250 g ai/ha): 95
Post-emerge Herbicidal Activity, phytotoxicity rating CHEAL ([7]; Rate 63 g ai/ha): 100
Post-emerge Herbicidal Activity, phytotoxicity rating CHEAL ([7]; Rate 250 g ai/ha): 100
Post-emerge Herbicidal Activity, phytotoxicity rating ABUTH ([8]; Rate 63 g ai/ha): 100
Post-emerge Herbicidal Activity, phytotoxicity rating ABUTH ([8]; Rate 250 g ai/ha): 100
Post-emerge Herbicidal Activity, phytotoxicity rating SORHA ([9]; Rate 63 g ai/ha): 70
Post-emerge Herbicidal Activity, phytotoxicity rating SORHA ([9]; Rate 250 g ai/ha): 90
Post-emerge Herbicidal Activity, phytotoxicity rating AMBEL ([10]; Rate 63 g ai/ha): 100
Post-emerge Herbicidal Activity, phytotoxicity rating AMBEL ([10]; Rate 250 g ai/ha): 100
Pre-emerge phytotoxicity rating, crop damage CORN ([11]; 63 g ai/ha): 0
Pre-emerge phytotoxicity rating, crop damage CORN ([11]; 250 g ai/ha): 10
Pre-emerge phytotoxicity rating, crop damage RICE ([12]; 63 g ai/ha): 10
Pre-emerge phytotoxicity rating, crop damage RICE ([12]; 250 g ai/ha): 80
Post-emerge phytotoxicity rating CORN (crop damage) ([13]; Rate 63 g ai/ha): 70
Post-emerge phytotoxicity rating CORN (crop damage) ([13]; Rate 250 g ai/ha): 100
Post-emerge phytotoxicity rating RICE (crop damage) ([14]; Rate 63 g ai/ha): 70
Post-emerge phytotoxicity rating RICE (crop damage) ([14]; Rate 250 g ai/ha): 100
Pre-emerge herbicidal activity, phytotoxicity rating IPOHE ([15]; 63 g ai/ha): 0
Pre-emerge herbicidal activity, phytotoxicity rating IPOHE ([15]; 250 g ai/ha): 0
Pre-emerge herbicidal activity, phytotoxicity rating CASOB ([16]; 63 g ai/ha): 0
Pre-emerge herbicidal activity, phytotoxicity rating CASOB ([16]; 250 g ai/ha): 0
Pre-emerge herbicidal activity, phytotoxicity rating DIGSA ([17]; 63 g ai/ha): 30
Pre-emerge herbicidal activity, phytotoxicity rating DIGSA ([17]; 250 g ai/ha): 99
Pre-emerge herbicidal activity, phytotoxicity rating ECHCG ([18]; 63 g ai/ha): 0
Pre-emerge herbicidal activity, phytotoxicity rating ECHCG ([18]; 250 g ai/ha): 80
Pre-emerge herbicidal activity, phytotoxicity rating SETVI ([19]; 63 g ai/ha): 0
Pre-emerge herbicidal activity, phytotoxicity rating SETVI ([19]; 250 g ai/ha): 95
Pre-emerge herbicidal activity, phytotoxicity rating CHEAL ([20]; 63 g ai/ha): 95
Pre-emerge herbicidal activity, phytotoxicity rating CHEAL ([20]; 250 g ai/ha): 100
Pre-emerge herbicidal activity, phytotoxicity rating ABUTH ([21]; 63 g ai/ha): 100
Pre-emerge herbicidal activity, phytotoxicity rating ABUTH ([21]; 250 g ai/ha): 100
Pre-emerge herbicidal activity, phytotoxicity rating SORHA ([22]; 63 g ai/ha): 0
Pre-emerge herbicidal activity, phytotoxicity rating SORHA ([22]; 250 g ai/ha): 50
Pre-emerge herbicidal activity, phytotoxicity rating AMARE ([23]; 63 g ai/ha): 100
Pre-emerge herbicidal activity, phytotoxicity rating AMARE ([23]; 250 g ai/ha): 100

— patent US6355799B1, “Substituted benzene compounds, process for their preparation, and herbicidal and defoliant compositions containing them” (ISK Americas Incorporated, priority 1997, dated 2002)
